# Assay results as given in patent US11186588B2 (AYUMI PHARMACEUTICAL CORPORATION, priority 2017, dated 2021).
# Tests used:
# [1] = system: NF-κB; assay: NF-κB reporter gene assay (TNF-α stimulated A549/NF-κB-luc cells); assay type: cell-based; conditions: Homo sapiens, TNF-α stimulation
# Protocol: In order to evaluate NF-κB inhibitory activity of the present compounds, NF-κB reporter gene assay was carried out. The specific method is described below.
# Gene recombinant human TNF-α (available from R&D systems, Cat No. 210-TA) was dissolved in D-PBS(−) (available from Wako Pure Chemical Industries, Ltd., Cat No. 293-72601) to prepare 100 μg/mL of TNF-α solution stock solution. 100 μg/mL of the TNF-α solution stock solution was diluted with the culture medium to prepare 10 ng/mL of TNF-α solution.
# A549/NF-κB-luc cells (available from Panomics, Cat No. LR0051) were prepared at 375,000 cells/mL in the culture medium. The 375,000 cells/mL A549/NF-κB-luc cell suspension was seeded at 80 μL each on a white 96-well plate (available from Greiner, Cat No. 655073). One hour after seeding the cells, 10 μL of 2% DMSO solution (control) and each compound solution in each concentration were added to each well of the 96-well plate. One hour after the addition of each compound solution, 10 ng/mL of the TNF-α solution (10 μL) was added to each well of the 96-well plate. Three hours after the addition of 10 ng/mL of the TNF-α solution, 100 μL of Steady-Glo reagent (available from Promega, Cat No. E2510) was added to each well of the 96-well plate. After 30 to 90 minutes of the addition of the Steady-Glo reagent, the luminescence intensity of each well was detected by EnVision multilabel counter (available from PerkinElmer).
# NF-κB inhibition rate (%) was calculated by the following equation using Microsoft EXCEL 2010. NF-κB inhibition rate (%)=100−{(luminescence intensity average value of each compound added well)−(average value of luminescence intensity of blank well))/(average value of luminescence intensity of control well)−(average value of luminescence intensity of blank well)}×100 In addition, IC50 values were calculated from the calculated NF-κB inhibition rate (%) using curve fitting software XLfit (available from IDBS).
# [2] = biological target: Recombinant BRD4 (44-168) protein (Homo sapiens (Human), UniProt O60885); assay: BRD4-H4KAc4 binding assay (amplified luminescence proximity homogeneous assay, AlphaScreen); conditions: 10 uM
# Protocol: In order to evaluate BRD4 inhibitory activity of the present compounds, BRD4-H4KAc4 binding assay was carried out by an amplified luminescence proximity homogeneous assay. The specific method is described below.
# H4KAc4 peptide (available from Toray Research Center, Inc., sequence SGRGK(Ac)GGK(Ac)GLGK(Ac)GGAK(Ac)RHR-K(Biotin)-NH2) was dissolved in 1×Assay buffer to prepare 1 mM H4KAc4 peptide stock solution.
# N-terminal His tag/C-terminal FLAG tag-fused type Recombinant BRD4 (44-168) protein (available from Active Motif, Cat No. 31380) was diluted with 1×Assay buffer to 1,250-fold to prepare 250 nM BRD4 solution.
# 1% DMSO solution (control) and 2 μL of each compound solution in each concentration were added to each well of AlphaPlate-384 (from PerkinElmer, Cat No. 6008350). Next, 2 μL of 250 nM BRD4 solution was added to each well of AlphaPlate-384. Further, 2 μL of 250 nM H4KAc4 peptide solution was added to each well of AlphaPlate-384. After addition of the 250 nM H4KAc4 peptide solution, the mixture was allowed to stand at room temperature under light shielding for 60 minutes, and 4 μL of AlphaScreen beads were added to each well of AlphaPlate-384. After addition of the AlphaScreen beads, the mixture was allowed to stand at room temperature under light shielding for 60 minutes, emission at 520-620 nm upon excitation at 680 nm was detected by EnVision multilabel counter (from PerkinElmer), and binding of BRD4 and H4KAc4 was detected. Incidentally, the evaluation of each compound was carried out in duplicate (2 well per 1 compound).
# The BRD4 inhibition rate (%) was calculated by the following equation using Microsoft EXCEL 2010. BRD4 inhibition rate (%)=100−{(luminescence intensity average value of each compound added well)−(average value of luminescence intensity of blank well))/(average value of luminescence intensity of control well)−(average value of luminescence intensity of blank well)}×100
IC50 [1],inhibition at 10 µM [2],SMILES
3100 nM,101%,"Cc1sc2c(c1C)C(c1ccccc1)=NNc1nnc(C)n1-2 [Example 27, 2,3,9-trimethyl-4-phenyl-6H-thieno[2,3-e][1,2,4]triazolo[3,4-c][1,2,4]triazepine]"
265 nM,101%,"Cc1sc2c(c1C)C(c1ccccc1)=NN(Cc1ccccc1)c1nnc(C)n1-2 [Example 29, 6-benzyl-2,3,9-trimethyl-4-phenyl-6H-thieno[2,3-e][1,2,4]triazolo[3,4-c][1,2,4]triazepine]"
87.2 nM,99.2%,"COc1cccc(CN2N=C(c3ccccc3)c3c(sc(C)c3C)-n3c(C)nnc32)c1 [Example 33, 6-(3-methoxybenzyl)-2,3,9-trimethyl-4-phenyl-6H-thieno[2,3-e][1,2,4]triazolo[3,4-c][1,2,4]triazepine]"
612 nM,100%,"COc1ccccc1CN1N=C(c2ccc(Cl)cc2)c2c(sc(C)c2C)-n2c(C)nnc21 [Example 34, 4-(4-chlorophenyl)-6-(2-methoxybenzyl)-2,3,9-trimethyl-6H-thieno[2,3-e][1,2,4]triazolo[3,4-c][1,2,4]triazepine]"
401 nM,100%,"Cc1sc2c(c1C)C(c1ccc(Cl)cc1)=NN(Cc1ccc(Cl)cn1)c1nnc(C)n1-2 [Example 36, 4-(4-chlorophenyl)-6-((5-chloropyridin-2-yl)methyl)-2,3,9-trimethyl-6H-thieno[2,3-e][1,2,4]triazolo[3,4-c][1,2,4]triazepine]"
620 nM,100%,"Cc1sc2c(c1C)C(c1ccc(Cl)cc1)=NN(Cc1cncc(Cl)c1)c1nnc(C)n1-2 [Example 39, 4-(4-chlorophenyl)-6-((5-chloropyridin-3-yl)methyl)-2,3,9-trimethyl-6H-thieno[2,3-e][1,2,4]triazolo[3,4-c][1,2,4]triazepine]"
699 nM,100%,"Cc1sc2c(c1C)C(c1ccc(Cl)cc1)=NN(Cc1cc(Cl)ccn1)c1nnc(C)n1-2 [Example 40, 4-(4-chlorophenyl)-6-((4-chloropyridin-2-yl)methyl)-2,3,9-trimethyl-6H-thieno[2,3-e][1,2,4]triazolo[3,4-c][1,2,4]triazepine]"
1150 nM,100%,"Cc1sc2c(c1C)C(c1ccc(Cl)cc1)=NN(Cc1ccnc(F)c1)c1nnc(C)n1-2 [Example 42, 4-(4-chlorophenyl)-6-((2-fluoropyridin-4-yl)methyl)-2,3,9-trimethyl-6H-thieno[2,3-e][1,2,4]triazolo[3,4-c][1,2,4]triazepine]"
1830 nM,100%,"Cc1sc2c(c1C)C(c1ccc(Cl)cc1)=NN(Cc1cnccc1Cl)c1nnc(C)n1-2 [Example 43, 4-(4-chlorophenyl)-6-((4-chloropyridin-3-yl)methyl)-2,3,9-trimethyl-6H-thieno[2,3-e][1,2,4]triazolo[3,4-c][1,2,4]triazepine]"
9850 nM,99.3%,"Cc1sc2c(c1C)C(c1ccc(Cl)cc1)=NN(CCc1c[nH]c3ccccc13)c1nnc(C)n1-2 [Example 44, 6-(2-(1H-indol-3-yl)ethyl)-4-(4-chlorophenyl)-2,3,9-trimethyl-6H-thieno[2,3-e][1,2,4]triazolo[3,4-c][1,2,4]triazepine]"
429 nM,99.9%,"Cc1sc2c(c1C)C(c1ccc(Cl)cc1)=NN(Cc1cccs1)c1nnc(C)n1-2 [Example 45, 4-(4-chlorophenyl)-2,3,9-trimethyl-6-(thiophen-2-ylmethyl)-6H-thieno[2,3-e][1,2,4]triazolo[3,4-c][1,2,4]triazepine]"
683 nM,100%,"COc1cccc(CN2N=C(c3ccc(Cl)cc3)c3c(sc(C)c3C)-n3c(C)nnc32)n1 [Example 46, 4-(4-chlorophenyl)-6-((6-methoxypyridin-2-yl)methyl)-2,3,9-trimethyl-6H-thieno[2,3-e][1,2,4]triazolo[3,4-c][1,2,4]triazepine]"
554 nM,100%,"COc1ccc(CN2N=C(c3ccc(Cl)cc3)c3c(sc(C)c3C)-n3c(C)nnc32)nc1 [Example 47, 4-(4-chlorophenyl)-6-((5-methoxypyridin-2-yl)methyl)-2,3,9-trimethyl-6H-thieno[2,3-e][1,2,4]triazolo[3,4-c][1,2,4]triazepine]"
297 nM,100%,"COc1ccnc(CN2N=C(c3ccc(Cl)cc3)c3c(sc(C)c3C)-n3c(C)nnc32)c1 [Example 48, 4-(4-chlorophenyl)-6-((4-methoxypyridin-2-yl)methyl)-2,3,9-trimethyl-6H-thieno[2,3-e][1,2,4]triazolo[3,4-c][1,2,4]triazepine]"
355 nM,100%,"COc1ccc(CN2N=C(c3ccc(Cl)cc3)c3c(sc(C)c3C)-n3c(C)nnc32)cn1 [Example 50, 4-(4-chlorophenyl)-6-((6-methoxypyridin-3-yl)methyl)-2,3,9-trimethyl-6H-thieno[2,3-e][1,2,4]triazolo[3,4-c][1,2,4]triazepine]"
265 nM,100%,"COc1ccncc1CN1N=C(c2ccc(Cl)cc2)c2c(sc(C)c2C)-n2c(C)nnc21 [Example 51, 4-(4-chlorophenyl)-6-((4-methoxypyridin-3-yl)methyl)-2,3,9-trimethyl-6H-thieno[2,3-e][1,2,4]triazolo[3,4-c][1,2,4]triazepine]"
5230 nM,100%,"Cc1sc2c(c1C)C(c1ccc(Cl)cc1)=NN(Cc1cccc(N)c1)c1nnc(C)n1-2 [Example 52, 3-((4-(4-chlorophenyl)-2,3,9-trimethyl-6H-thieno[2,3-e][1,2,4]triazolo[3,4-c][1,2,4]triazepin-6-yl)methyl)aniline]"
2980 nM,100%,"Cc1sc2c(c1C)C(c1ccc(Cl)cc1)=NN(Cc1cccc(O)c1)c1nnc(C)n1-2 [Example 53, 3-((4-(4-chlorophenyl)-2,3,9-trimethyl-6H-thieno[2,3-e][1,2,4]triazolo[3,4-c][1,2,4]triazepin-6-yl)methyl)phenol]"
2760 nM,100%,"Cc1sc2c(c1C)C(c1ccc(Cl)cc1)=NN(Cc1cccc(N(C)C)c1)c1nnc(C)n1-2 [Example 55, 3-((4-(4-chlorophenyl)-2,3,9-trimethyl-6H-thieno[2,3-e][1,2,4]triazolo[3,4-c][1,2,4]triazepin-6-yl)methyl)-N,N-dimethylaniline]"
942 nM,100%,"CC(=O)Nc1cc(CN2N=C(c3ccc(Cl)cc3)c3c(sc(C)c3C)-n3c(C)nnc32)ccn1 [Example 56, N-(4-((4-(4-chlorophenyl)-2,3,9-trimethyl-6H-thieno[2,3-e][1,2,4]triazolo[3,4-c][1,2,4]triazepin-6-yl)methyl)pyridin-2-yl)acetamide]"
558 nM,100%,"Cc1sc2c(c1C)C(c1ccc(Cl)cc1)=NN(Cc1ccnc(N)c1)c1nnc(C)n1-2 [Example 57, 4-((4-(4-chlorophenyl)-2,3,9-trimethyl-6H-thieno[2,3-e][1,2,4]triazolo[3,4-c][1,2,4]triazepin-6-yl)methyl)pyridin-2-amine]"
728 nM,100%,"COc1ccc(CN2N=C(c3ccc(Cl)cc3)c3ccsc3-n3c(C)nnc32)cc1 [Example 58, 4-(4-chlorophenyl)-6-(4-methoxybenzyl)-9-methyl-6H-thieno[2,3-e][1,2,4]triazolo[3,4-c][1,2,4]triazepine]"
